Some results are limits rather than exact numbers.

One experiment has as its target T1, Protein farnesyltransferase (Rattus norvegicus, UniProt Q02293+Q04631). Put plainly: Inhibitory activity against Farnesyl transferase; 8.5-27.0. Type of experiment: protein-complex assay.
As to `CSCC[C@H](NC(=O)[C@H](Cc1ccccc1)NC(=O)[C@@H](NCc1cc(C(=O)O)ccc1O)C(C)C)C(=O)O`, 8.5 µM corresponded to half-maximal inhibition (IC50).

A further experiment addresses T1, Protein farnesyltransferase. In words: Inhibition of farnesyl transferase. It is filed as protein-complex assay.
On to `CC[C@H](C)[C@H](NC(=O)[C@@H](NC(=O)[C@@H](N)CO)C(C)C)C(=O)N[C@@H](CCSC)C(=O)O`, for which the 50% inhibitory concentration (IC50) (as a rule, the point on the concentration scale where inhibition reaches its midpoint) is > 100 µM.
On the same count and under the same terms, next, `CSCC[C@H](NC(=O)[C@H](Cc1ccccc1)NC[C@@H](NCc1cc(Cl)ccc1O)C(C)C)C(=O)O`: 2.3 µM.
`CSCC[C@H](NC(=O)[C@H](Cc1ccccc1)NC(=O)[C@@H](NCc1ncccc1O)C(C)C)C(=O)O` yielded an IC50 of 30 µM.
On the same count and under the same terms, to `CCCOC(=O)c1ccc(O)c(CN[C@H](C(=O)N[C@@H](Cc2ccccc2)C(=O)N[C@@H](CCSC)C(=O)O)C(C)C)c1` belongs ~100 µM; to `CSCC[C@H](NC(=O)[C@H](Cc1ccccc1)NC(=O)[C@@H](NCc1cccc(O)c1)C(C)C)C(=O)O`, 13 µM.
On the same count and under the same terms, next, `CSCC[C@H](NC(=O)[C@H](Cc1ccccc1)NC(=O)[C@@H](NC(c1ncccc1O)c1ncccc1O)C(C)C)C(=O)O`: 30 µM; `CSCC[C@H](NC(=O)[C@H](Cc1ccccc1)NC(=O)[C@@H](NCc1ccccc1)C(C)C)C(=O)O`: 21 µM.
Same read-out and setting: next, `CSCC[C@H](NC(=O)[C@H](Cc1ccccc1)NC(=O)[C@@H](NCc1cc(Br)ccc1O)C(C)C)C(=O)O`: 0.45 µM; `CSCC[C@H](NC(=O)[C@H](Cc1ccccc1)NC(=O)[C@@H](NCc1ccccc1SC(c1ccccc1)c1ccccc1)C(C)C)C(=O)O`: ~100 µM.
`COCCOCOc1ccc(Cl)cc1CN[C@H](C(=O)N[C@@H](Cc1ccccc1)C(=O)N[C@@H](CCSC)C(=O)O)C(C)C`: the 50% inhibitory concentration (IC50) amounted to 0.76 µM.
Still for that read-out and setting: next, `CSCC[C@H](NC(=O)[C@H](Cc1ccccc1)NC(=O)[C@@H](NCc1ccccc1O)C(C)C)C(=O)O`: 2.4 µM.
On the same count and under the same terms, next, `COCCOCOc1ccc(C(F)(F)F)cc1CN[C@H](C(=O)N[C@@H](Cc1ccccc1)C(=O)N[C@@H](CCSC)C(=O)O)C(C)C`: 16 µM.
Same read-out and setting: next, `COc1ccc(O)c(CN[C@H](C(=O)N[C@@H](Cc2ccccc2)C(=O)N[C@@H](CCSC)C(=O)O)C(C)C)c1`: 3.8 µM; `CSCC[C@H](NC(=O)[C@H](Cc1ccccc1)NC(=O)[C@@H](NCc1cc(Cl)ccc1O)C(C)C)C(=O)O`: 0.5 µM.
In the case of `CSCC[C@H](NC(=O)[C@H](Cc1ccccc1)NC(=O)[C@@H](NCc1cc(O)ccc1O)C(C)C)C(=O)O`, it took 24 µM to reach half-maximal inhibition (IC50).
On the same count and under the same terms, to `CSCC[C@H](NC(=O)[C@H](Cc1ccccc1)NC(=O)[C@@H](NCc1cccc(OC/C=C(\C)CC/C=C(\C)CCC=C(C)C)c1O)C(C)C)C(=O)O` belongs 70 µM; to `CSCC[C@H](NC(=O)[C@H](Cc1ccccc1)NC(=O)[C@@H](NCc1cc(C(F)(F)F)ccc1O)C(C)C)C(=O)O`, 2.1 µM.
`CSCC[C@H](NC(=O)[C@H](Cc1ccccc1)NC(=O)[C@@H](NCc1ccc(O)cc1)C(C)C)C(=O)O` showed an IC50 of 17 µM.
`CSCC[C@H](NC(=O)[C@H](Cc1ccccc1)NC(=O)[C@@H](NCc1ccccc1S)C(C)C)C(=O)O` displayed an IC50 of 22 µM.
Still for that read-out and setting: to `CC(C)[C@H](NCc1cc(F)ccc1O)C(=O)N[C@@H](Cc1ccccc1)C(=O)N[C@@H](CC[S+](C)[O-])C(=O)O` (some centres undefined) belongs 1.6 µM.
Same read-out and setting: to `CSCC[C@H](NC(=O)[C@H](Cc1ccccc1)NC(=O)[C@@H](NCc1cccc(F)c1O)C(C)C)C(=O)O` belongs 2.5 µM; to `CC[C@H](C)[C@H](NC(=O)[C@@H](NC(=O)[C@@H](N)CS)C(C)C)C(=O)N[C@@H](CCSC)C(=O)O`, 0.25 µM; to `CSCC[C@H](NC(=O)[C@H](Cc1ccccc1)NC(=O)[C@@H](NCc1c(O)ccc2ccccc12)C(C)C)C(=O)O`, 6.3 µM.

The values are drawn from ChEMBL document CHEMBL1128109, “Phenolic replacements for cysteine in farnesyl transferase inhibitors based on CVFM” (Bioorg Med Chem Lett, 1995).
